According to patent publication EP3501280A1, “COMPOSITION COMPRISING AN AGROCHEMICALLY ACTIVE COMPOUND AND A CARBONATE” (priority 2017, dated 2019):
≈ marks a conversion by molar mass, not a printed value.

Legend:
[1] = at 20°C; cited from earlier work
[2] = Solubility of carbonates in water (OECD guideline 105, flask method); assay type: physicochemical; conditions: for Solubility of carbonates in water: OECD 105 flask method
From the text: The water solubility of a substance is the saturation mass concentration of the substance in water at a given temperature. Determination according to OECD guideline for testing of chemicals 105, flask method.

[3] = Determination of boiling point of carbonates; assay type: physicochemical; conditions: calculated from boiling point measured at a pressure below 101.3 kPa
Procedure: (§1) Determination of boiling point: measured at a pressure below 101.3 kPa; the boiling point measured at this pressure below 101.3 kPa were used to calculate the boiling point at 101.3 kPa by using the following tool: http://www.calctool.org/CALC/chem/substance/boiling. Determination of dynamic viscosity: By using Anton Paar viscosimeter SVM 3000/G2, viscosity was measured at 23°C. Said Anton Paar viscosimeter is a rotational viskosimeter and works according the Stabinger measurement principle.

[4] = system: Blumeria graminis f. sp. hordei (type A6); assay: Curative leaf-segment test on barley; assay type: in vivo; conditions: barley (HORVX), 2 WAT; for Effect [%]: pustules relative to no carbonate
Procedure: (§2) Plants tested: barley (HORVX); cultivation of plants: three plants per pot were cultivated in fine Frustorfer soil for three weeks.
The plants were inoculated with fresh conidia of Blumeria graminis f. sp. hordei (type A6). 24-48h after inoculation with mildew, the plants were treated with the following liquid formulation: fungicidal formulation OPUS® SC 125 (BASF SE; comprising epoxiconazole). The effect of a carbonate (numbering according to Table 1 above) was tested by adding the respective carbonate to the liquid formulation prior to treatment of the plants.
10 hours after treatment with fungicidal formulation, beginning from the stalk, 7 cm leaf segments were cut; the most recent leaf and the second most recent leaf of a plant were used. 15 pieces of said 7 cm leaf segments were collected and put onto benzimidazole-agar (0.5% agar, 40 ppm benzimidazole added after treatment by autoclave. The agar plates (10x10cm) were then incubated at 18°C during night time and at 23°C during day time at 60-70% air moisture in an incubator for a certain time.
The determination of the mildew infestation was carried out by mildew pustules per leaf within 5 cm leaf length. WAT (weeks after treatment) were chosen according to constant impairment observed. Table Ex6b: Dosing of agrochemically active compound with and without component (b) in curative leaf-segment test on barley (HORVX) and the infestation of mildew after WAT

[5] = Determination of dynamic viscosity (Anton Paar viscosimeter SVM 3000/G2); assay type: physicochemical; conditions: dynamic viscosity at 23°C
Procedure: as §1

[6] = system: Blumeria graminis f. sp. hordei (type A6); assay: Protective leaf-segment test on barley; assay type: in vivo; conditions: barley (HORVX), 2 WAT; for Effect [%]: infestation relative to no carbonate
Procedure: as §2
The plants were treated with the following SC formulation: fungicidal formulation - 25% by weight azoxystrobin, 16.7% by weight Tamol® NN 2901, 10% by weight propyleneglycol, 48.3% by weight water. The effect of a carbonate (numbering according to Table 1 above) was tested by adding the respective carbonate to the […] formulation prior to treatment of the plants.
10 hours after treatment with fungicidal formulation, beginning from the stalk, 7 cm leaf segments have been cut; the most recent and the second most recent leaf of a plant were used. 15 pieces of said 7 cm leaf segments were collected and put onto benzimidazole-agar (0.5% agar, 40 ppm benzimidazole added after treatment by autoclave).
The leaf segments on the agar plates were inoculated with fresh conidia of Blumeria graminis f. sp. hordei (type A6).
The agar plates (10x10cm) were then incubated at 18°C during night time and 23°C during day time at 60-70% air moisture in an incubator for a certain time.
The determination of the mildew infestation was carried out by determining the surface per leaf within 5 cm leaf length infested with mildew. WAT (weeks after treatment) were chosen according to constant impairment observed.

[7] = epoxiconazole 10 g/ha (OPUS® SC 125) plus carbonate No 1 at 50 g/ha
[8] = azoxystrobin 10 g/ha SC formulation plus carbonate No 1 at 50 g/ha
[9] = epoxiconazole 10 g/ha (OPUS® SC 125), amount of carbonate 0 g/ha
[10] = azoxystrobin 10 g/ha SC formulation, amount of carbonate 0 g/ha

For CC(O)(Cn1cncn1)c1ccc(Oc2ccc(Cl)cc2)cc1C(F)(F)F (stereo not shown) [pesticide 7, mefentrifluconazole], the “Solubility in H2O (data from literature*)” value (shortened to “Solubility in H2O”) [1] is listed as 0.81 mg/l at 20 °C.

In the case of CC(C)(C)C(O)(CCc1ccc(Cl)cc1)Cn1cncn1 (stereo not shown) [pesticide 5, tebuconazole], the “Solubility in H2O” value [1] is listed as 29 mg/l at 20 °C.

For CCC(=O)OCC1COC(=O)O1 (stereo not shown) [compound 1], the “Solubility of carbonates in water” value [2] was 54 g carbonate per l water, the “Boiling point °C at 101.3 kPa” value [3] was >180 °C and the “Mildew pustules - average value of 15 leaves” value [4, 7] was 34.7. For the same compound, the “Effect [%]” value [4, 7] was 84%, the “Viscosity mPa.s at 23°C” value [5] was 32 mPa.s and the “% leaf surface infested with mildew - average value of 15 leaves” value [6, 8] was 28%. The “Effect [%]” value [6, 8] was 72.35%.

In the case of CC(Cc1ccc(C(C)(C)C)cc1)CN1C[C@@H](C)O[C@@H](C)C1 (stereo partly shown) [pesticide 9, fenpropimorph], the “Solubility in H2O” value [1] is given as 4.3mg/l at 20 °C.

For CC1COC(=O)O1 (stereo not shown) [propylene carbonate, reference compound], the water solubility ([2]; comparison value for propylene carbonate, source not stated) was 175 mg/mL (≈ 1710 mM).

In the case of CC(=O)OCC1COC(=O)O1 (stereo not shown) [compound 3], the “Solubility of carbonates in water” value [2] is reported as 72 g carbonate per l water, the “Boiling point °C at 101.3 kPa” value [3] is reported as >180 °C and the “Viscosity mPa.s at 23°C” value [5] is reported as 59.1 mPa.s.

For Fc1ccc([C@]2(Cn3cncn3)O[C@H]2c2ccccc2Cl)cc1 (racemic) [pesticide 4, epoxiconazole, reference compound], the “Mildew pustules - average value of 15 leaves” value [4, 9] is given as 41.3, the “Effect [%]” value [4, 9] is given as 100% and the “Solubility in H2O” value [1] is given as 8.42 mg/l at 20 °C.

In the case of COC(=O)N(OC)c1ccccc1COc1ccn(-c2ccc(Cl)cc2)n1 [pesticide 3, pyraclostrobin], the “Solubility in H2O” value [1] is given as 1.9 mg/l at 20 °C.

For CCCC1COC(=O)O1 (stereo not shown) [compound 2], the “Solubility of carbonates in water” value [2] was 21 g carbonate per l water, the “Boiling point °C at 101.3 kPa” value [3] was >180 °C and the “Viscosity mPa.s at 23°C” value [5] was 4.2 mPa.s.

For CO/C=C(/C(=O)OC)c1ccccc1Oc1cc(Oc2ccccc2C#N)ncn1 [pesticide 2, azoxystrobin, reference compound], the “Solubility in H2O” value [1] is given as 6.7 mg/l at 20 °C, the “% leaf surface infested with mildew - average value of 15 leaves” value [6, 10] is given as 38.7% and the “Effect [%]” value [6, 10] is given as 100%.

In the case of Cn1cc(C(=O)Nc2ccccc2-c2cc(F)c(F)c(F)c2)c(C(F)F)n1 [pesticide 8, fluxapyroxad], the “Solubility in H2O” value [1] is listed as 3.88 mg/l at 20 °C.
